From US7659293B2, “α-Amino-N-hydroxy-acetamide derivatives” (Novartis AG, priority 2001, dated 2010)
Structures can show the parent of a compound that is named as a salt.

Molecular target: T1, MMP1 (collagenase 1) (Homo sapiens, UniProt P03956)
T1 construct: made in house; host or cells: mouse C127 cells, vector pBPV-MMT, secreted into culture medium
T1 sequence (P03956 100-469): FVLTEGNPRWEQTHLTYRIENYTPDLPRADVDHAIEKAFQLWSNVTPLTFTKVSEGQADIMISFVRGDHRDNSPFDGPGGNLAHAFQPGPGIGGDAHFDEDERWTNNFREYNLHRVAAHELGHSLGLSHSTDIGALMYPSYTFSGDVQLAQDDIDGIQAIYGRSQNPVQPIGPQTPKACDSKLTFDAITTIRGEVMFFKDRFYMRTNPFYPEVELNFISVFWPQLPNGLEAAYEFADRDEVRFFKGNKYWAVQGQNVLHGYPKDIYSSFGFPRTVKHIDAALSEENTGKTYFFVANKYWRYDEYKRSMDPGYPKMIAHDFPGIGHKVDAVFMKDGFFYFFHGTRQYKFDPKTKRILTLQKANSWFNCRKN
Assay: MMP1 (collagenase 1) fluorogenic substrate inhibition assay
Type: biochemical
Conditions: mean ± SEM of three independent experiments
Procedure: The inhibitory activities of compounds of formula I on MT1-MMP, MMP1 (collagenase 1) and MMP2 (gelatinase A) can be determined as follows:
Stock solutions of substrate (MCA-Pro-Leu-Gly-Leu-Dpa-Ala-Arg-NH2 (SEQ ID NO: 1), C. G. Knight, et al, FEBS lett., 296, 263-266, (1992)), are prepared in 100% DMSO at a concentration 1.0 mM.
Stock solutions of inhibitors are prepared in 100% DMSO. The inhibitor is diluted into the assays from a solution in 100% DMSO, and controls substitute an equal volume of DMSO so that the final DMSO concentration from inhibitor and substrate dilutions in all assays is 6.0%. Assays are performed in assay buffer (150 mM NaCl, 10 mM CaCl2, 50 mM Tris-Cl pH7.5, 0.05% Brij-35) containing 6.0% DMSO once the substrate and inhibitor are diluted into it. […] The fluorescence changes are monitored using an excitation wavelength of 320 nm and an emission wavelength of 340 nm. […] The reaction mixture is preincubated with the inhibitor for 30 min, the reaction is started by the addition of MMP enzyme and the fluorescence intensity is measured for 10 min. […]
C127 cells (ATCC-mouse mammary tumor cell line) are grown in Dulbecco's Modified Essential Medium supplemented with 10% heat inactivated fetal bovine serum and 1× antibiotic-antimycotic solution at 37° C. in a humidified CO2 incubator. […] Media from selected clones are analyzed for collagenase expression by an enzymatic assay. […]

CN(C)c1ccc(CN(CC(=O)NO)S(=O)(=O)c2ccc(OCC3CC3)cc2)cc1 [Example 2, 2-[(4-Cyclopropylmethoxy-benzenesulfonyl)-(4-dimethylamino-benzyl-amino]-N-hydroxy-acetamide HCl salt]
IC50: 1770 ± 144 nM
